In patent US7846968B2, “Methods for QT interval control” (Janssen Pharmaceutica, N.V., priority 2005, dated 2010):

Assays:
[1] = system: healthy adults; assay: Double-blind, randomized, 3-way crossover, placebo- and active-control study of cardiovascular (QT/QTc) effects; assay type: in vivo, human; conditions: for Mean change from pretreatment baseline in QTc interval (mean ΔQTc), Bazett correction / Mean change from pretreatment baseline in QTc interval (mean ΔQTc), Individual Correction Method / Mean change from pretreatment baseline in QTc interval (mean ΔQTc), Fridericia correction: moxifloxacin 400 mg single oral dose; for Mean change from pretreatment baseline in QTc interval (mean ΔQTc), Fridericia correction: time-matched baseline Day 0; for Maximum decrease in QTc-F compared to baseline: individual subjects; for Maximum decrease in QTc-F compared to baseline / Number of subjects with QTc shortening between 30 and 60 ms compared to baseline: QTc-F; for Reduction of the mean QTc-F interval compared to pretreatment baseline (Day 0): stated as reduction
Experimental: (§1) The study of the cardiovascular effects of a carbamate compound of the present invention, shown as Formula 7 above, and hereafter referred to as “the test compound” was a single-center, double-blind, randomized, 3-way crossover, placebo- and active-control study. The test compound was studied at a dose of 1,500 mg/day (750 mg twice daily) both after acute dosing ([…], Day 1) and at steady state (Day 7). The study also evaluated the delayed post-treatment effects on Days 8-10. Moxifloxacin (400 mg, single oral dose) was used as an active control for the evaluation of QT/QTc on both Days 1 and 7.
(§2) Of the 38 subjects enrolled, 35 completed all 3 treatment conditions (placebo, moxifloxacin, test compound). Two subjects withdrew electively after receiving the first 3 days of the last treatment period (1 in moxifloxacin and 1 in test compound), and the last one withdrew because of an adverse event (respiratory tract infection) after the first treatment period (placebo), and before receiving any other treatment. Thus, all 38 subjects completed placebo treatment, 36 subjects completed the test compound treatment (and an additional subject provided data for Days 0 and 1 on test compound), and 36 completed moxifloxacin treatment (and 1 provided data for Days 0 and 1 on moxifloxacin). All 38 subjects were included in the safety evaluation; all collected drug level measurements and all available ECG recordings were included in data analyses.
The study population consisted of 38 healthy adults (20 men and 18 women), age 18 to 50 years, with normal 12-lead ECG (normal sinus rhythm, QTc and QRS intervals) and no history of cardiovascular disease. Of the 38 subjects enrolled, 35 completed all 3 treatment conditions (placebo, moxifloxacin, test compound). Two subjects withdrew electively after receiving the first 3 days of the last treatment period (1 in moxifloxacin and 1 in test compound), and the last one withdrew because of an adverse event (respiratory tract infection) after the first treatment period (placebo), and before receiving any.
as §2, with “The study population consisted of 38 healthy adults (20 men and 18 women), age 18 to 50 years, with normal 12-lead ECG (normal sinus rhythm, QTc and QRS intervals) and no history of cardiovascular disease. Of” for “Of”, “completed” for “completed the”
During each treatment period, 11 12-lead ECGs were collected at the same time of the day on Day 0 (baseline), Day 1 (initial treatment), and Day 7 (steady-state treatment); 4 additional ECGs were collected at exactly 24, 36, 48, and 72 hours after the last dose of Day 7 (post-treatment).
All ECG recordings of the same subject were read by the same blinded cardiologist. The QT intervals, from the onset of the QRS complex to the end of the T wave, were determined by the method of overlapping medians. The key QTc variables used in the assessment are listed below. The change from baseline (ΔQTc) was calculated using time-matched values. The following parameters were calculated for each subject and treatment by averaging over all time points during the 12-hour dosing interval. […]

[2] = Pharmacokinetics / drug level measurements in the crossover QT study; assay type: in vivo, human
Experimental: as §1
as §2, with “All 38 subjects were included in the safety evaluation; all collected drug level measurements and all available ECG recordings were included in data analyses.” left out

[3] = Day 1 (acute dosing), test compound 250 mg
[4] = Day 1 (acute dosing), test compound 250 mg, averaged over 12-hour dosing interval
[5] = Day 7 (steady state), test compound 1,500 mg/day (750 mg twice daily)

| Structure (SMILES) | Mean change from pretreatment baseline in QTc interval (mean ΔQTc), Bazett correction [1, 3] | Mean change from pretreatment baseline in QTc interval (mean ΔQTc), Individual Correction Method [1, 3] | Mean change from pretreatment baseline in QTc interval (mean ΔQTc), Fridericia correction [1, 4] | Mean change from pretreatment baseline in QTc interval (mean ΔQTc), Bazett correction [1, 5] | Mean change from pretreatment baseline in QTc interval (mean ΔQTc), Individual Correction Method [1, 5] | Mean change from pretreatment baseline in QTc interval (mean ΔQTc), Fridericia correction [1, 5] | Maximum decrease in QTc-F compared to baseline [1] [ms] | Number of subjects with QTc shortening between 30 and 60 ms compared to baseline ([1]; steady state (Day 7)) [subjects] | Systemic exposure between the 2 single doses ([2]; 400 mg doses on Day 1 and Day 7) | Gender effect with regard to QTc reduction ([1]; 20 men and 18 women) | Delayed post-treatment effect on QT/QTc intervals ([1]; Days 8-10) | Reduction of the mean QTc-F interval compared to pretreatment baseline (Day 0) ([1]; after initial treatment (Day 1)) [ms] | Reduction of the mean QTc-F interval compared to pretreatment baseline (Day 0) ([1]; at steady state (Day 7)) [ms] | Lowest QTc-F value ([1]; observed in 3 subjects (2 test compound, 1 placebo)) [ms] | Time after the last dose of Day 7 by which the QTc shortening effect disappeared ([1]; post-treatment ECGs at 24, 36, 48, 72 hours) [h] | Number of subjects with QTc-F slightly below 350 ms ([1]; steady state (Day 7)) [subjects] | Pharmacokinetics (linearity / dose proportionality) ([2]; after single- and multiple-dose administration) |
| --- | --- | --- | --- | --- | --- | --- | --- | --- | --- | --- | --- | --- | --- | --- | --- | --- | --- |
| COc1c(N2C[C@@H]3CCCN[C@@H]3C2)c(F)cc2c(=O)c(C(=O)O)cn(C3CC3)c12 [Moxifloxacin, reference compound] | +6.5 ms | +6.6 ms | +6.7 ms | +3.2 ms | +0.8 ms | +1.6 ms | 45 | 5 | consistent | – | – | – | – | – | – | – | – |
| NC(=O)OC[C@@H](O)c1ccccc1Cl [test compound] | -3.2 ms | -3.7 ms | -3.1 ms | -7.4 ms | -12.1 ms | -11.2 ms | 47 | 14 | – | no gender effect | no apparent delayed post-treatment effect | 3.1 | 11.2 | 348 | ≤ 24 | 2 | linear and proportional |
